PubChem BioAssay AID1918942 (Molecular Pharmacology Branch, DTP, NCI, 2023)
Where “and” joins values, the source holds several entries; their conditions need not be identical. Identical values can stand only once.

Test system: 743489-274-T-PDC complex spheroid viability
Assay: Anticancer human tumor 743489-274-T-PDC patient-derived renal cell carcinoma cell line growth inhibition
Conditions: for viability, T/C: stronger effect = lower value
Procedure, shortened: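 Complex spheroids of tumor cells with HUVEC and human MSCs, exposed to iadademstat combined with other agents. Each agent tested in half-log steps from near clinical Cmax (else 10 microM top), DMSO ≤0.25%.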

[1] = curve of first compound, second compound 0.1 µM
[2] = curve of first compound, second compound 0.316 µM
[3] = curve of first compound, second compound 1 µM
[4] = curve of first compound, second compound 3.16 µM
[5] = curve of first compound, second compound 10 µM
[6] = second compound 0.1 µM, first compound 0.00316 µM
[7] = second compound 0.1 µM, first compound 0.01 µM
[8] = second compound 0.1 µM, first compound 0.0316 µM
[9] = second compound 0.1 µM, first compound 0.1 µM
[10] = second compound 0.1 µM, first compound 0.316 µM
[11] = second compound 0.1 µM, first compound 1 µM
[12] = second compound 0.316 µM, first compound 0.00316 µM
[13] = second compound 0.316 µM, first compound 0.01 µM
[14] = second compound 0.316 µM, first compound 0.0316 µM
[15] = second compound 0.316 µM, first compound 0.1 µM
[16] = second compound 0.316 µM, first compound 0.316 µM
[17] = second compound 0.316 µM, first compound 1 µM
[18] = second compound 1 µM, first compound 0.00316 µM
[19] = second compound 1 µM, first compound 0.01 µM
[20] = second compound 1 µM, first compound 0.0316 µM
[21] = second compound 1 µM, first compound 0.1 µM
[22] = second compound 1 µM, first compound 0.316 µM
[23] = second compound 1 µM, first compound 1 µM
[24] = second compound 3.16 µM, first compound 0.00316 µM
[25] = second compound 3.16 µM, first compound 0.01 µM
[26] = second compound 3.16 µM, first compound 0.0316 µM
[27] = second compound 3.16 µM, first compound 0.1 µM
[28] = second compound 3.16 µM, first compound 0.316 µM
[29] = second compound 3.16 µM, first compound 1 µM
[30] = second compound 10 µM, first compound 0.00316 µM
[31] = second compound 10 µM, first compound 0.01 µM
[32] = second compound 10 µM, first compound 0.0316 µM
[33] = second compound 10 µM, first compound 0.1 µM
[34] = second compound 10 µM, first compound 0.316 µM
[35] = second compound 10 µM, first compound 1 µM
[36] = second compound 0.1 µM, first compound 3.16 µM
[37] = second compound 0.1 µM, first compound 10 µM
[38] = second compound 0.316 µM, first compound 3.16 µM
[39] = second compound 0.316 µM, first compound 10 µM
[40] = second compound 1 µM, first compound 3.16 µM
[41] = second compound 1 µM, first compound 10 µM
[42] = second compound 3.16 µM, first compound 3.16 µM
[43] = second compound 3.16 µM, first compound 10 µM
[44] = second compound 10 µM, first compound 3.16 µM
[45] = second compound 10 µM, first compound 10 µM
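Note: spheroids exposed to compounds for 7 days before readout.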
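Throughout, for viability, T/C: 100% = DMSO vehicle control wells.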

COc1cc(Nc2ncc3c(n2)-c2ccc(Cl)cc2C(c2c(F)cccc2OC)=NC3)ccc1C(=O)O + NC1CC1c1ccc(-c2cccc(O)c2)cc1 showed an IC50 [1] of over 1000 nM, an IC50 [2] of over 1000 nM and an IC50 [3] of over 1000 nM. The IC50 [4] was over 1000 nM, the IC50 [5] was over 1000 nM and the viability, T/C [6] was 103%. The viability, T/C [7] was 105%, the viability, T/C [8] was 82.8% and the viability, T/C [9] was 72.2%. For the same molecule, the viability, T/C [10] was 82.4%, the viability, T/C [11] was 81.5% and the viability, T/C [12] was 97.7%. It also gave a viability, T/C [13] of 100%, a viability, T/C [14] of 85.4% and a viability, T/C [15] of 90%. It also gave a viability, T/C [16] of 81.2%, a viability, T/C [17] of 80.5% and a viability, T/C [18] of 111%. For the same molecule, the viability, T/C [19] was 91.4%, the viability, T/C [20] was 84.3% and the viability, T/C [21] was 74.3%. It also gave a viability, T/C [22] of 74%, a viability, T/C [23] of 82.5% and a viability, T/C [24] of 92.9%. It also gave a viability, T/C [25] of 85.7%, a viability, T/C [26] of 89.5% and a viability, T/C [27] of 77.6%. It also gave a viability, T/C [28] of 72.8%, a viability, T/C [29] of 79% and a viability, T/C [30] of 100%. It also gave a viability, T/C [31] of 102%, a viability, T/C [32] of 85.3% and a viability, T/C [33] of 83.5%. For the same molecule, the viability, T/C [34] was 82.9% and the viability, T/C [35] was 78.4%.

Nc1ncn(C2CC(O)C(CO)O2)c(=O)n1 (configuration not stated) + NC1CCC(NC2CC2c2ccccc2)CC1 was tested, and the IC50 [1] was over 1000 nM, the IC50 [2] was over 1000 nM and the IC50 [3] was over 1000 nM. The IC50 [4] was over 1000 nM, the IC50 [5] was over 1000 nM and the viability, T/C [6] was 107%. It also gave a viability, T/C [7] of 113%, a viability, T/C [8] of 110% and a viability, T/C [9] of 109%. For the same molecule, the viability, T/C [10] was 105%, the viability, T/C [11] was 105% and the viability, T/C [12] was 122%. The viability, T/C [13] was 119%, the viability, T/C [14] was 107% and the viability, T/C [15] was 107%. For the same molecule, the viability, T/C [16] was 98%, the viability, T/C [17] was 98.4% and the viability, T/C [18] was 107%. It also gave a viability, T/C [19] of 113%, a viability, T/C [20] of 114% and a viability, T/C [21] of 92%. For the same molecule, the viability, T/C [22] was 105%, the viability, T/C [23] was 105% and the viability, T/C [24] was 127%. It also gave a viability, T/C [25] of 122%, a viability, T/C [26] of 108% and a viability, T/C [27] of 95.9%. For the same molecule, the viability, T/C [28] was 94%, the viability, T/C [29] was 97.8% and the viability, T/C [30] was 104%. It also gave a viability, T/C [31] of 122%, a viability, T/C [32] of 131% and a viability, T/C [33] of 97.2%. The viability, T/C [34] was 103% and the viability, T/C [35] was 97.3%.

With COc1ccc([C@@H](O)c2cc(-c3ncnc4cc(N5CCOCC5)ccc34)c(F)cc2Cl)nn1 + NC1CC1c1ccc(-c2cccc(O)c2)cc1 the IC50 [1] was 643 nM, the IC50 [2] was 979 nM and the IC50 [3] was 833 nM. It also gave an IC50 [4] of 611 nM, an IC50 [5] of 918 nM and a viability, T/C [8] of 101%. For the same molecule, the viability, T/C [9] was 93.6%, the viability, T/C [10] was 63% and the viability, T/C [11] was 38.6%. For the same molecule, the viability, T/C [36] was 31.9%, the viability, T/C [37] was 15.4% and the viability, T/C [14] was 99.7%. It also gave a viability, T/C [15] of 92.7%, a viability, T/C [16] of 68.8% and a viability, T/C [17] of 57.4%. It also gave a viability, T/C [38] of 24.1%, a viability, T/C [39] of 32% and a viability, T/C [20] of 94.3%. The viability, T/C [21] was 93%, the viability, T/C [22] was 80.2% and the viability, T/C [23] was 43.4%. For the same molecule, the viability, T/C [40] was 25%, the viability, T/C [41] was 16.8% and the viability, T/C [26] was 93.6%. It also gave a viability, T/C [27] of 94.4%, a viability, T/C [28] of 59.4% and a viability, T/C [29] of 41.2%. The viability, T/C [42] was 27.5%, the viability, T/C [43] was 17.4% and the viability, T/C [32] was 99.1%. It also gave a viability, T/C [33] of 111%, a viability, T/C [34] of 74.3% and a viability, T/C [35] of 49.5%. It also gave a viability, T/C [44] of 27.1% and a viability, T/C [45] of 16.6%.

For CC1COCCN1c1cc(C2(S(C)(=N)=O)CC2)nc(-c2ccnc3[nH]ccc23)n1 (configuration not stated) + NC1CCC(NC2CC2c2ccccc2)CC1, the IC50 [1] was over 10000 nM, the IC50 [2] was over 10000 nM and the IC50 [3] was over 10000 nM. The IC50 [4] was over 10000 nM, the IC50 [5] was over 10000 nM and the viability, T/C [8] was 108%. For the same molecule, the viability, T/C [9] was 106%, the viability, T/C [10] was 108% and the viability, T/C [11] was 116%. The viability, T/C [36] was 93.7%, the viability, T/C [37] was 92.1% and the viability, T/C [14] was 99.6%. For the same molecule, the viability, T/C [15] was 111%, the viability, T/C [16] was 107% and the viability, T/C [17] was 108%. It also gave a viability, T/C [38] of 112%, a viability, T/C [39] of 98.6% and a viability, T/C [20] of 103%. It also gave a viability, T/C [21] of 123%, a viability, T/C [22] of 115% and a viability, T/C [23] of 113%. For the same molecule, the viability, T/C [40] was 99.8%, the viability, T/C [41] was 94.9% and the viability, T/C [26] was 112%. The viability, T/C [27] was 103%, the viability, T/C [28] was 107% and the viability, T/C [29] was 106%. It also gave a viability, T/C [42] of 98.5%, a viability, T/C [43] of 92.7% and a viability, T/C [32] of 112%. For the same molecule, the viability, T/C [33] was 103%, the viability, T/C [34] was 111% and the viability, T/C [35] was 121%. The viability, T/C [44] was 106% and the viability, T/C [45] was 94.6%.

With CC1COCCN1c1cc(C2(S(C)(=N)=O)CC2)nc(-c2ccnc3[nH]ccc23)n1 (configuration not stated) the viability, T/C (compound 0.0316 µM) was 93.4% and 107%, the viability, T/C (compound 0.1 µM) was 112% and 104% and the viability, T/C (compound 0.316 µM) was 99.9% and 87%. For the same molecule, the viability, T/C (compound 1 µM) was 93.9% and 91.4%, the viability, T/C (compound 3.16 µM) was 100% and 90.3% and the viability, T/C (compound 10 µM) was 81.3% and 63.8%. The IC50 (curve of compound) was over 10000 nM.

Work on Nc1ncn(C2CC(O)C(CO)S2)c(=O)n1 (configuration not stated) + NC1CCC(NC2CC2c2ccccc2)CC1 yielded an IC50 [1] of over 300 nM, an IC50 [2] of over 300 nM and an IC50 [3] of over 300 nM. For the same molecule, the IC50 [4] was over 300 nM, the IC50 [5] was over 300 nM and the viability, T/C (second compound 0.1 µM, first compound 0.000949 µM) was 116%. It also gave a viability, T/C (second compound 0.1 µM, first compound 0.003 µM) of 95.5%, a viability, T/C (second compound 0.1 µM, first compound 0.00949 µM) of 104% and a viability, T/C (second compound 0.1 µM, first compound 0.03 µM) of 91.1%. The viability, T/C (second compound 0.1 µM, first compound 0.0949 µM) was 89.6%, the viability, T/C (second compound 0.1 µM, first compound 0.3 µM) was 80.5% and the viability, T/C (second compound 0.316 µM, first compound 0.000949 µM) was 106%. It also gave a viability, T/C (second compound 0.316 µM, first compound 0.003 µM) of 105%, a viability, T/C (second compound 0.316 µM, first compound 0.00949 µM) of 120% and a viability, T/C (second compound 0.316 µM, first compound 0.03 µM) of 110%. It also gave a viability, T/C (second compound 0.316 µM, first compound 0.0949 µM) of 95.6%, a viability, T/C (second compound 0.316 µM, first compound 0.3 µM) of 103% and a viability, T/C (second compound 1 µM, first compound 0.000949 µM) of 118%. The viability, T/C (second compound 1 µM, first compound 0.003 µM) was 112%, the viability, T/C (second compound 1 µM, first compound 0.00949 µM) was 107% and the viability, T/C (second compound 1 µM, first compound 0.03 µM) was 97.6%. The viability, T/C (second compound 1 µM, first compound 0.0949 µM) was 87.6%, the viability, T/C (second compound 1 µM, first compound 0.3 µM) was 87% and the viability, T/C (second compound 3.16 µM, first compound 0.000949 µM) was 112%. For the same molecule, the viability, T/C (second compound 3.16 µM, first compound 0.003 µM) was 116%, the viability, T/C (second compound 3.16 µM, first compound 0.00949 µM) was 96.8% and the viability, T/C (second compound 3.16 µM, first compound 0.03 µM) was 108%. It also gave a viability, T/C (second compound 3.16 µM, first compound 0.0949 µM) of 88.4%, a viability, T/C (second compound 3.16 µM, first compound 0.3 µM) of 102% and a viability, T/C (second compound 10 µM, first compound 0.000949 µM) of 113%. It also gave a viability, T/C (second compound 10 µM, first compound 0.003 µM) of 125%, a viability, T/C (second compound 10 µM, first compound 0.00949 µM) of 101% and a viability, T/C (second compound 10 µM, first compound 0.03 µM) of 104%. For the same molecule, the viability, T/C (second compound 10 µM, first compound 0.0949 µM) was 93.4% and the viability, T/C (second compound 10 µM, first compound 0.3 µM) was 98%.
